Assays:
[1] = biological target: T1, hERG (Kv11.1) potassium channel (Homo sapiens, UniProt Q12809); test: Automated planar patch-clamp, hERG current in HEK cells; assay type: cell-based
T1 construct: host or cells: HEK293
From the text: Inhibition of the hERG channel, the pore forming α-subunit of the native IKr cardiac potassium channel, is expected to prolong repolarization both in the atria and in the ventricles. The GIRK channel is the pore forming α-subunit of the acetylcholine-activated potassium channel and plays an important role in atrial electrophysiology. Its inhibition can be expected to decrease the acetylcholine-activated potassium current (IKACh), a current that plays an important role in the pathogenesis of AF. Therefore, the effects of SZV-2649 on the hERG and GIRK ion channels were studied by the planar patch-clamp technique in mammalian HEK cell lines stably expressing these channels.
The currents conducted by the hERG and GIRK channels were measured by using planar patch-clamp technology[,[47],[68] in the whole-cell configuration with a four-channel medium-throughput fully automated patch-clamp platform (Patchliner Quattro, Nanion Technologies GmbH, Munich, Germany) with integrated temperature control. Data acquisition and online analysis were performed with an EPC-10 Quadro patch-clamp amplifier (HEKA Elektronik Dr Schulze GmbH, Lambrecht/Pfalz, Germany), using PatchMaster 2.65 software (HEKA Elektronik Dr. Schulze GmbH). The pipetting protocols were controlled by PatchControlHT 1.09.30 software (Nanion Technologies GmbH). […]

conscious dogs = test: Basic ECG parameters in conscious dogs; assay type: in vivo, dog
Description: The effects of SZV-2649 on the basic ECG parameters in conscious dogs were investigated. […] Beagle dogs of either sex weighing 12–14 kg were used for the experiments. ECG measurements were taken in conscious animals using the standard I-III leads. QTc was calculated using the Van de Water’s formula[61]. SZV-2649 (10 mg/kg) was applied by i.v. or oral administration.

[2] = intravenous 10 mg/kg, 30 min after administration, n = 6
[3] = per os 10 mg/kg, 1 h after administration, n = 7

T1 sequence (Q12809 whole entry): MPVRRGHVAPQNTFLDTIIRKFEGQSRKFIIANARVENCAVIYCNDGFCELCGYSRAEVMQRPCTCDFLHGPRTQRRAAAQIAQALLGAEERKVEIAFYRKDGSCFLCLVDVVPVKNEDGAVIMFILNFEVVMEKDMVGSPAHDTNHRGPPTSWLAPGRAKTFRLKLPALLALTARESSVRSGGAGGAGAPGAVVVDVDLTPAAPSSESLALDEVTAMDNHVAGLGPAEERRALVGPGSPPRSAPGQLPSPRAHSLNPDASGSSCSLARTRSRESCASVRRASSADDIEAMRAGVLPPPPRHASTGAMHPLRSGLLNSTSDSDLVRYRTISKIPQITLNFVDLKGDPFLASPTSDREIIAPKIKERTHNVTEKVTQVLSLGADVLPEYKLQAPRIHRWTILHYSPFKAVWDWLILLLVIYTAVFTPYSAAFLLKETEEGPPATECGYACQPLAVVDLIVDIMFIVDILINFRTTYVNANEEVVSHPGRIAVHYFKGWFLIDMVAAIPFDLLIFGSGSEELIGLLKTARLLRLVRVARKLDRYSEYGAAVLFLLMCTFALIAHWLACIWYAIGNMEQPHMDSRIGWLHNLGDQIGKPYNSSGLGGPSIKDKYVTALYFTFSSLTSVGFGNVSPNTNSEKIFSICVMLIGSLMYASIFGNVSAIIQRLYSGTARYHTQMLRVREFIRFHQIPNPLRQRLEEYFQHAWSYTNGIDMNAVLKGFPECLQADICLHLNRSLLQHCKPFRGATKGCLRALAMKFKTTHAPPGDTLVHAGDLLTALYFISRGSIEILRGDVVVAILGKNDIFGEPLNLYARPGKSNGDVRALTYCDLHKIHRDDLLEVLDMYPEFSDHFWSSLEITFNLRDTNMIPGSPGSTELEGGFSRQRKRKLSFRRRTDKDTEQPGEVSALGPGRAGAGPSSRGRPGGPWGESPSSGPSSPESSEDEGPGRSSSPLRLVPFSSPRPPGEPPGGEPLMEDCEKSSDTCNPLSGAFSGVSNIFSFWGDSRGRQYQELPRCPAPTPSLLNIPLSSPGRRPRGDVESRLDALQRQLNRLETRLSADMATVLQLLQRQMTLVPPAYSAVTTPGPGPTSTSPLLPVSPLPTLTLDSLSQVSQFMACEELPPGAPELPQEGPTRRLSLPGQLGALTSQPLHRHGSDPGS

Q: Which IC50 ([1]; HEK cells (abstract)) does the source give for CC(N)COc1c(I)cc(C#N)cc1I.Cl (stereo not shown) [SZV-2649, 4-(2-aminopropoxy)-3,5-diiodobenzonitrile hydrochloride] here?
A: 342 nM

Q: And the IC50 at 3 min ([1]; human, HEK293 cells stably expressing hERG (Kv11.1), pH 7.4, printed in picture of Fig. 2b, read-out: Effect on hERG: EC50)?
A: 342 nM

Q: And the PQ (conscious dogs; [2])?
A: 150.6 ± 15.8 ms

Q: And the QRS (conscious dogs; [2])?
A: 52.2 ± 3.2 ms

Q: And the QT (conscious dogs; [2])?
A: 234.5 ± 5.6 ms

Q: What about the RR (conscious dogs; [2]) of the same compound?
A: 756.1 ± 29.4 ms

Q: What about the QTC (conscious dogs; intravenous 10 mg/kg, 30 min after administration, n = 6, Van de Water's formula) of the same compound?
A: 255.7 ± 6.3 ms

Q: And the PQ (conscious dogs; [3])?
A: 119.8 ± 7.5 ms

Q: And the QRS (conscious dogs; [3])?
A: 47.9 ± 2.4 ms

Q: And the QT (conscious dogs; [3])?
A: 215.0 ± 7.5 ms

Q: What about the RR (conscious dogs; [3]) of the same compound?
A: 596.2 ± 44.0 ms

Q: What about the QTC (conscious dogs; per os 10 mg/kg, 1 h after administration, n = 7, Van de Water's formula) of the same compound?
A: 250.1 ± 7.0 ms

Q: And the melting point?
A: 216 to 219 °C
